According to patent US20190099523A1, “FILM-FORMING COMPOSITION FOR A PH-DEPENDANT SUSTAINED RELEASE OF THE ACTIVE AGENT” (YISSUM RESEARCH DEVELOPMENT COMPANY OF THE HEBREW …, priority 2011, published 2019):

What was measured:
Type in all cases: physicochemical
[1] = Triclosane release rate from films; conditions: Tric-1 film; Trizma base buffer 50 mM +10% SLS, 37° C.; pH 5.0 / 6.8 / 5.0 / 6.8, 2 hours each; FIG. 6
Description: Determining the triclosane release rate from the films was conducted by first placing the films in 100 ml glass vessels, containing Trizma base buffer (50 mM, +10% SLS (sodium lauryl sulphate) at pH=5.0 and 6.8 at 50 rpm, at 37° C.
Then, 2 cc samples were taken from the glass vessels at pre-determined intervals (each hour from 1 to 8 hrs). The released triclosane concentration was measured spectrophotometrically at 280 nm (Uvikon 933: Kontron Instruments). The concentration of the triclosane was calculated according to a reference curve.
(§1) In a different experiment, the films were kept at a pH 5.0 buffer for 2 hours, then at a pH 6.8 buffer for 2 hours, then at a pH 5.0 buffer for 2 hours and again at a pH 6.8 buffer for 2 hours. Samples were taken at similar intervals.

[2] = CHX release rate from films; conditions: CHX-1 film; phosphate buffer, 37° C., 1-8 hours; FIG. 3
Description: Determining the CHX release rate from the films was conducted by first placing the films in 100 ml glass vessels, containing phosphate buffer at pH=5.0 and 6.8 and 50 cpm, at 37° C.
Then, 1 cc samples were taken from the glass vessels at pre-determined intervals (each hour from 1 to 8 hrs).
The released CHX concentration was measured spectrophotometrically at 260 nm (Uvikon 933: Kontron Instruments). The concentration of the CHX was calculated according to a reference curve.
as §1

[3] = Clotrimazole release rate from films; conditions: Clotrimazole-1 film
Description: Determining the clotrimazole release rate from the films was conducted by first placing the films in 350 ml glass vessels, containing Trizma base buffer (50 mM) with 0.2% SLS (sodium lauryl sulphate) at pH=5.0 and 6.8 and 50 cpm, at 37° C.
Then, 1 cc samples were taken from the glass vessels at pre-determined intervals (each hour from 1 to 8 hrs). The released clotrimazole concentration was measured spectrophotometrically at 206 nm (Uvikon 933: Kontron Instruments). The concentration of the […] was calculated according to a reference curve.
In a different experiment, the films were kept at a pH 5.0 buffer for 2 hours, then kept at a pH 6.8 buffer for 2 hours, then at a pH 5.0 buffer for 2 hours and again at a pH 6.8 buffer for 2 hours. Samples were taken at similar intervals.

Oc1cc(Cl)ccc1Oc1ccc(Cl)cc1Cl [triclosane, Triclosane]
triclosane release rate at pH 5.0 compared with pH 6.8, pH change profile [1]: significantly faster

CC(=O)O.CC(=O)O.NC(=N\CCCCCC/N=C(N)/N=C(\N)Nc1ccc(Cl)cc1)/N=C(\N)Nc1ccc(Cl)cc1 [CHX, Chlorhexidine-Diacetate]
CHX release rate (as % of the initial amount in film), pH 5.0 compared with pH 6.8 [2]: higher release rate at pH 5.0

Clc1ccccc1C(c1ccccc1)(c1ccccc1)n1ccnc1 [clotrimazole, Clotrimazole]
clotrimazole release rate (as % of the initial amount in film), pH 5.0 compared with pH 6.8 ([3]; Trizma base buffer 50 mM with 0.2% SLS, 37° C., 1-8 hours, FIG. 1): much faster
effect of pH 6.8 on clotrimazole release rate, pH change profile ([3]; pH 5.0 / 6.8 / 5.0 / 6.8, 2 hours each, FIG. 2): retards the rate of release
